{
  "source": "ChEMBL document CHEMBL2417375",
  "about": "(Bioorg Med Chem Lett, 2013)",
  "key": {"[1]": {"target": "Mu-type opioid receptor (Mus musculus) (UniProt P42866)", "sequence (P42866 whole entry)": "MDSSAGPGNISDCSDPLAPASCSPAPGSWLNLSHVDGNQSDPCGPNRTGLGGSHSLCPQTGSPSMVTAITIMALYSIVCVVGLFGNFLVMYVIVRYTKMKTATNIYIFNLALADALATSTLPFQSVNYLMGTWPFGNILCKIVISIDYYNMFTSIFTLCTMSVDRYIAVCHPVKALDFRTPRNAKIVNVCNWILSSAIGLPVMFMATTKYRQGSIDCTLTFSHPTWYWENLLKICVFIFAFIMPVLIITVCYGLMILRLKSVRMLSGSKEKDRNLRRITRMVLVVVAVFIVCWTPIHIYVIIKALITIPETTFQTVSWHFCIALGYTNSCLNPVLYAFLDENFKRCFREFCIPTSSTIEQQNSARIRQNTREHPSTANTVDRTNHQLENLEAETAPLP", "assay": "Agonist activity at mouse mu opioid receptor expressed in CHO cells assessed as stimulation of [35S]-GTPgammaS binding after 1.5 hrs relative to DAMGO", "assay_type": "functional, cell-based"}, "[2]": {"target": "T1, Mu-type opioid receptor (Mus musculus, UniProt P42866)", "T1 sequence (P42866 whole entry)": "as above", "assay": "Agonist activity at mouse mu opioid receptor expressed in CHO cells assessed as stimulation of [35S]-GTPgammaS binding after 1.5 hrs", "assay_type": "functional, cell-based"}, "[3]": {"species_on_record": "Mus musculus", "assay": "Selectivity ratio of Ki for mouse delta opioid receptor to Ki for mouse mu opioid receptor"}, "[4]": {"species_on_record": "Mus musculus", "assay": "Selectivity ratio of Ki for mouse kappa opioid receptor to Ki for mouse mu opioid receptor"}, "[5]": {"target": "Delta-type opioid receptor (Mus musculus, UniProt P32300)", "sequence (P32300 whole entry)": "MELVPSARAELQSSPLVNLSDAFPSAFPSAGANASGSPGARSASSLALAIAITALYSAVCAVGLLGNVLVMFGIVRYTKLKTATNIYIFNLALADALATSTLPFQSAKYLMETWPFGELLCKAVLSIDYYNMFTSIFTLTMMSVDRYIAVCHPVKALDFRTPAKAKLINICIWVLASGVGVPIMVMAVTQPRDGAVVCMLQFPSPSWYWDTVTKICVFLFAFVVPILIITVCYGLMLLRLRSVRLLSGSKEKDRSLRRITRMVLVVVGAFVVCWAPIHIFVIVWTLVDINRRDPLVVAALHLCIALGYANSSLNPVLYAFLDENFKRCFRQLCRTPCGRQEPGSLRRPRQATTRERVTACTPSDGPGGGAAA", "assay": "Displacement of [3H]-naltrindole from mouse delta opioid receptor expressed in CHO cells after 1.5 hrs", "assay_type": "cell-based"}, "[6]": {"target": "Kappa-type opioid receptor (Mus musculus, UniProt P33534)", "sequence (P33534 whole entry)": "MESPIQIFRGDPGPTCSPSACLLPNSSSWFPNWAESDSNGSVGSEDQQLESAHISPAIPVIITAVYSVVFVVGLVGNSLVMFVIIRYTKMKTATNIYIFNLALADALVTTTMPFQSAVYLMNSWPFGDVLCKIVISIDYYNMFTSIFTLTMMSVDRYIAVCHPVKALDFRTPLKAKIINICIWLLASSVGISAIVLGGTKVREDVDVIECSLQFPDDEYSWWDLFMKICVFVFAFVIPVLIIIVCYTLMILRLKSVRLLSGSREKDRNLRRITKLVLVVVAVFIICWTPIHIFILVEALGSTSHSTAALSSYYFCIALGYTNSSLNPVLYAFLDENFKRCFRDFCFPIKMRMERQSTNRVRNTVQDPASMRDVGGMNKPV", "assay": "Displacement of [3H]-diprenorphine from mouse kappa opioid receptor expressed in CHO cells after 1.5 hrs", "assay_type": "cell-based"}, "[7]": {"target": "T1, Mu-type opioid receptor", "assay": "Displacement of [3H]-naloxone from mouse mu opioid receptor expressed in CHO cells after 1.5 hrs", "assay_type": "cell-based"}},
  "data": [
    {"smiles": "O=C(CCc1cc2ccccc2cn1)N[C@H]1CC[C@@]2(O)[C@H]3Cc4ccc(O)c5c4[C@@]2(CCN3CC2CC2)[C@H]1O5", "values": [
      {"measurement": "Emax", "setting": "[1]", "value": 27.4, "unit": "%"},
      {"measurement": "EC50", "setting": "[2]", "value": 1.14, "unit": "nM"},
      {"measurement": "Ratio Ki", "setting": "[3]", "value": 12},
      {"measurement": "Ratio Ki", "setting": "[4]", "value": 2.4},
      {"measurement": "Ki", "setting": "[5]", "value": 8.4, "unit": "nM"},
      {"measurement": "Ki", "setting": "[6]", "value": 1.61, "unit": "nM"},
      {"measurement": "Ki", "setting": "[7]", "value": 0.68, "unit": "nM"}
    ]},
    {"smiles": "O=C(N[C@H]1CC[C@@]2(O)[C@H]3Cc4ccc(O)c5c4[C@@]2(CCN3CC2CC2)[C@H]1O5)c1cc2ccccc2cn1", "values": [
      {"measurement": "Ki", "setting": "[5]", "value": 162, "unit": "nM"}
    ]},
    {"smiles": "COc1c(C(=O)N[C@H]2CC[C@@]3(O)[C@H]4Cc5ccc(O)c6c5[C@@]3(CCN4CC3CC3)[C@H]2O6)nc(Cl)c2ccccc12", "values": [
      {"measurement": "EC50", "setting": "[2]", "value": 1.74, "unit": "nM"},
      {"measurement": "Ki", "setting": "[5]", "value": 33.9, "unit": "nM"},
      {"measurement": "Ki", "setting": "[6]", "value": 22.2, "unit": "nM"}
    ]},
    {"smiles": "O=C(N[C@H]1CC[C@@]2(O)[C@H]3Cc4ccc(O)c5c4[C@@]2(CCN3CC2CC2)[C@H]1O5)c1ncc2ccccc2c1O", "values": [
      {"measurement": "Emax", "setting": "[1]", "value": 20.5, "unit": "%"},
      {"measurement": "EC50", "setting": "[2]", "value": 1.06, "unit": "nM"},
      {"measurement": "Ki", "setting": "[5]", "value": 32.8, "unit": "nM"},
      {"measurement": "Ki", "setting": "[6]", "value": 4, "unit": "nM"},
      {"measurement": "Ki", "setting": "[7]", "value": 0.45, "unit": "nM"}
    ]},
    {"smiles": "O=C(Cc1cc2ccccc2cn1)N[C@H]1CC[C@@]2(O)[C@H]3Cc4ccc(O)c5c4[C@@]2(CCN3CC2CC2)[C@H]1O5", "values": [
      {"measurement": "Emax", "setting": "[1]", "value": 18.6, "unit": "%"},
      {"measurement": "EC50", "setting": "[2]", "value": 4.6, "unit": "nM"},
      {"measurement": "Ratio Ki", "setting": "[3]", "value": 10},
      {"measurement": "Ratio Ki", "setting": "[4]", "value": 0.9},
      {"measurement": "Ki", "setting": "[5]", "value": 12.5, "unit": "nM"},
      {"measurement": "Ki", "setting": "[6]", "value": 1.1, "unit": "nM"},
      {"measurement": "Ki", "setting": "[7]", "value": 1.2, "unit": "nM"}
    ]},
    {"smiles": "O=C(CNC(=O)c1cc2ccccc2cn1)N[C@H]1CC[C@@]2(O)[C@H]3Cc4ccc(O)c5c4[C@@]2(CCN3CC2CC2)[C@H]1O5", "values": [
      {"measurement": "Emax", "setting": "[1]", "value": 13.9, "unit": "%"},
      {"measurement": "EC50", "setting": "[2]", "value": 14.1, "unit": "nM"},
      {"measurement": "Ratio Ki", "setting": "[3]", "value": 3.4},
      {"measurement": "Ratio Ki", "setting": "[4]", "value": 0.2},
      {"measurement": "Ki", "setting": "[5]", "value": 9.2, "unit": "nM"},
      {"measurement": "Ki", "setting": "[6]", "value": 0.61, "unit": "nM"},
      {"measurement": "Ki", "setting": "[7]", "value": 2.7, "unit": "nM"}
    ]},
    {"smiles": "O=C(N[C@H]1CC[C@@]2(O)[C@H]3Cc4ccc(O)c5c4[C@@]2(CCN3CC2CC2)[C@H]1O5)c1cc2ccccc2c(Cl)n1", "values": [
      {"measurement": "Ki", "setting": "[5]", "value": 79.8, "unit": "nM"},
      {"measurement": "Ki", "setting": "[6]", "value": 10.8, "unit": "nM"}
    ]},
    {"smiles": "O=C(N[C@H]1CC[C@@]2(O)[C@H]3Cc4ccc(O)c5c4[C@@]2(CCN3CC2CC2)[C@H]1O5)c1nc(Cl)c2ccccc2c1O", "values": [
      {"measurement": "Emax", "setting": "[1]", "value": 19.8, "unit": "%"},
      {"measurement": "EC50", "setting": "[2]", "value": 1.23, "unit": "nM"},
      {"measurement": "Ratio Ki", "setting": "[3]", "value": 24},
      {"measurement": "Ratio Ki", "setting": "[4]", "value": 25},
      {"measurement": "Ki", "setting": "[5]", "value": 17.4, "unit": "nM"},
      {"measurement": "Ki", "setting": "[6]", "value": 18.3, "unit": "nM"},
      {"measurement": "Ki", "setting": "[7]", "value": 0.73, "unit": "nM"}
    ]},
    {"smiles": "N#Cc1nc(C(=O)N[C@H]2CC[C@@]3(O)[C@H]4Cc5ccc(O)c6c5[C@@]3(CCN4CC3CC3)[C@H]2O6)cc2ccccc12", "values": [
      {"measurement": "Emax", "setting": "[1]", "value": 37.5, "unit": "%"},
      {"measurement": "EC50", "setting": "[2]", "value": 3.32, "unit": "nM"},
      {"measurement": "Ratio Ki", "setting": "[3]", "value": 131},
      {"measurement": "Ratio Ki", "setting": "[4]", "value": 10},
      {"measurement": "Ki", "setting": "[5]", "value": 130, "unit": "nM"},
      {"measurement": "Ki", "setting": "[6]", "value": 10.1, "unit": "nM"},
      {"measurement": "Ki", "setting": "[7]", "value": 0.99, "unit": "nM"}
    ]},
    {"smiles": "O=C(N[C@H]1CC[C@@]2(O)[C@H]3Cc4ccc(O)c5c4[C@@]2(CCN3CC2CC2)[C@H]1O5)c1ncc2ccccc2n1", "values": [
      {"measurement": "Emax", "setting": "[1]", "value": 21.6, "unit": "%"},
      {"measurement": "EC50", "setting": "[2]", "value": 6, "unit": "nM"},
      {"measurement": "Ratio Ki", "setting": "[3]", "value": 71},
      {"measurement": "Ratio Ki", "setting": "[4]", "value": 4.6},
      {"measurement": "Ki", "setting": "[5]", "value": 78.8, "unit": "nM"},
      {"measurement": "Ki", "setting": "[6]", "value": 5.1, "unit": "nM"},
      {"measurement": "Ki", "setting": "[7]", "value": 1.11, "unit": "nM"}
    ]},
    {"smiles": "CN1Cc2ccccc2C[C@H]1C(=O)N[C@H]1CC[C@@]2(O)[C@H]3Cc4ccc(O)c5c4[C@@]2(CCN3CC2CC2)[C@H]1O5", "values": [
      {"measurement": "Emax", "setting": "[1]", "value": 24.8, "unit": "%"},
      {"measurement": "EC50", "setting": "[2]", "value": 19.4, "unit": "nM"},
      {"measurement": "Ratio Ki", "setting": "[3]", "value": 3.2},
      {"measurement": "Ratio Ki", "setting": "[4]", "value": 2.3},
      {"measurement": "Ki", "setting": "[5]", "value": 9.3, "unit": "nM"},
      {"measurement": "Ki", "setting": "[6]", "value": 6.76, "unit": "nM"},
      {"measurement": "Ki", "setting": "[7]", "value": 2.9, "unit": "nM"}
    ]},
    {"smiles": "Cc1nc(C(=O)N[C@H]2CC[C@@]3(O)[C@H]4Cc5ccc(O)c6c5[C@@]3(CCN4CC3CC3)[C@H]2O6)cc2ccccc12", "values": [
      {"measurement": "Emax", "setting": "[1]", "value": 22.2, "unit": "%"},
      {"measurement": "EC50", "setting": "[2]", "value": 7.2, "unit": "nM"},
      {"measurement": "Ki", "setting": "[5]", "value": 117, "unit": "nM"},
      {"measurement": "Ki", "setting": "[6]", "value": 29.1, "unit": "nM"},
      {"measurement": "Ki", "setting": "[7]", "value": 2.1, "unit": "nM"}
    ]}
  ]
}
